The values below come from ChEMBL document CHEMBL1130523, “Design and synthesis of the cartilage protective agent (CPA, Ro32-3555)” (Bioorg Med Chem Lett, 1997).

The target of data set [1] is Matrix metalloproteinase-9 (Homo sapiens, UniProt P14780). The data set is described as follows: Inhibition of human gelatinase B, MMP9.
The target of data set [2] is Collagenase. The data set is described as follows: Inhibition of human collagenase (MMP1). It is filed as protein assay.
In data set [3] the target is Stromelysin-1 (Homo sapiens, UniProt P08254). The data set is described as follows: Inhibition of human stromelysin-1, MMP-3.
Chain of Stromelysin-1 (P08254 whole entry): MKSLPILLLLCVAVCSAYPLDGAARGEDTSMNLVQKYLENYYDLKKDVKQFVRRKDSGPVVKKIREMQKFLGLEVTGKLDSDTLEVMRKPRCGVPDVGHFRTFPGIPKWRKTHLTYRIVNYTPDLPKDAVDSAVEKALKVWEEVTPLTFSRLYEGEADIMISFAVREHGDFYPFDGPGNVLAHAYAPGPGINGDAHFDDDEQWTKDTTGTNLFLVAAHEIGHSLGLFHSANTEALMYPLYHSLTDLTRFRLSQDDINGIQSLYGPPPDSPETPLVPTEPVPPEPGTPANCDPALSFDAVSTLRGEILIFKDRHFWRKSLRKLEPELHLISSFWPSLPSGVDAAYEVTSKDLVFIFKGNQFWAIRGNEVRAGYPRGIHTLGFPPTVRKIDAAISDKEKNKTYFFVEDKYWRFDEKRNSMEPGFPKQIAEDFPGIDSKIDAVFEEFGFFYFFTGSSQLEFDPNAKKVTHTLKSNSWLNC
Data set [4] is described as follows: Oral bioavailability in rat. Conditions: in vivo. It is filed as ADME, organism-based.
Data set [5] is described as follows: Partition coefficient (logD). It is filed as physicochemical. Conditions: octanol/water.
For data set [6], the species on record is Bos taurus. The data set is described as follows: Effective activity in protecting bovine nasal cartilage explants against degradation induced by interleukin 1-alpha in efficacy experiments in vitro. In kind it is functional.
A short description of data set [7]: Solubility was determined. In kind it is physicochemical.

In brackets after ≈: the same amount, converted by molar mass. Some results are limits rather than exact numbers.

Chain of Matrix metalloproteinase-9 (P14780 whole entry): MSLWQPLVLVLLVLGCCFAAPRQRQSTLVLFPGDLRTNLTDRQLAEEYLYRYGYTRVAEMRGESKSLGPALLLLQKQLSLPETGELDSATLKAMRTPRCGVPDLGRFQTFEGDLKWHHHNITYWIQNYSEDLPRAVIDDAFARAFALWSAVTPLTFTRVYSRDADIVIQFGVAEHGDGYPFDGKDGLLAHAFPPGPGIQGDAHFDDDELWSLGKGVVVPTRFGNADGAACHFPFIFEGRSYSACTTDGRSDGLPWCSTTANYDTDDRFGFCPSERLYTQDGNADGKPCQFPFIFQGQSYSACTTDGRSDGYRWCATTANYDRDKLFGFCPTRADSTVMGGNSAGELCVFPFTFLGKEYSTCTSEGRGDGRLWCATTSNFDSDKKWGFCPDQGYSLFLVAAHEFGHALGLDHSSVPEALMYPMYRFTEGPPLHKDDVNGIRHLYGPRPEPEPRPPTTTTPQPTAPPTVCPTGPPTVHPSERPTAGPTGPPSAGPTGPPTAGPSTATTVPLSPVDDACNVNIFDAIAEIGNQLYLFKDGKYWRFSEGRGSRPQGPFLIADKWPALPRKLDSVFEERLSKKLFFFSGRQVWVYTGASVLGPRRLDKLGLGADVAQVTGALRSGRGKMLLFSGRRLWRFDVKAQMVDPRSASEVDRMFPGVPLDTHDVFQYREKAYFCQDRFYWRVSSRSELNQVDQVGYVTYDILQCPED

One may read the IC50 as the midpoint of a concentration-inhibition curve. Lower therefore signals inhibition by little substance. In general, bioavailability refers to dose-corrected exposure relative to a reference, in per cent. What is called logD is the decadic logarithm of the distribution of all forms, ionised or not, between an organic phase and buffer at a given pH. A low value points to a more hydrophilic compound. For orientation: solubility means the dissolved amount per volume that the medium holds. Low readings indicate a poorly soluble substance, high ones a readily soluble substance. Regarding `CC(C)C[C@@H](C(=O)N1CCCCC1)[C@@H](CN1C(=O)N(C)C(C)(C)C1=O)C(=O)NO`, the IC50 in data set [1] is 237 nM; in data set [2], 10.1 nM; in data set [3] it was 2180 nM; in data set [6], less than 100 nM. This compound gave a bioavailability in data set [4] of 30%. For the same compound, in data set [5], the logD was determined as 0.6. Further, the solubility in data set [7] is greater than 100 mg/mL.
Turning to `CNC(=O)[C@H](NC(=O)[C@@H](CC(=O)NO)CC(C)C)C(C)(C)C`, the IC50 in data set [1] turned out to be 10.4 nM; in data set [2], 4.9 nM; in data set [3], 160 nM. Further, the bioavailability in data set [4] came out at 3%. Further, the concentration in solution in data set [7] (solubility) came to 0.8 mg/mL (≈ 2.54 mM).
As for `CN1C(=O)N(C[C@@H](C(=O)NO)[C@@H](CC2CCCC2)C(=O)N2CCCCC2)C(=O)C1(C)C`, the IC50 in data set [1] was 59 nM; in data set [6], less than 100 nM. The compound further displayed a bioavailability in data set [4] of 25%. Besides, in data set [5], the logD came to 0.6. This compound had a solubility in data set [7] of 73 mg/mL (≈ 167 mM).
As for `CNC(=O)[C@H](NC(=O)[C@H](CC(C)C)[C@@H](C)C(=O)NO)C(C)(C)C`, the values for the IC50 in data set [1], in data set [2] and in data set [3] were 2.4 nM, 2.6 nM and 47 nM, respectively. In addition, the bioavailability in data set [4] was 2.7%.
As for `CNC(=O)[C@H](NC(=O)[C@H](CC(C)C)[C@@H](CN1C(=O)c2ccccc2C1=O)C(=O)NO)C(C)(C)C`, the IC50 is 4.3 nM in data set [1] and 9.1 nM in data set [3]. In addition, the bioavailability in data set [4] was 1%.
With `CNC(=O)[C@H](NC(=O)C(CC(C)C)C(CN1C(=O)N(C)C(C)(C)C1=O)C(=O)NO)C(C)(C)C` (single isomer, unassigned), the values for the IC50 in data set [1] and in data set [2] were 2.8 nM and 1 nM, respectively. The bioavailability in data set [4] was 1.5%.
